{"source": "PubChem BioAssay AID2060619", "about": "(Molecular Pharmacology Branch, DTP, NCI, 2025);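 further: spheroids exposed to agents for seven days before readout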;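 on viability, T/C: percent of DMSO vehicle control wells so 100% = untreated growth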", "test_system": "323965-272-R-J2-PDC complex spheroid viability", "assay": "Anticancer human tumor 323965-272-R-J2-PDC patient-derived pancreatic carcinoma cell line growth inhibition [CLK]", "conditions": "for IC50: curve of first compound; for viability, T/C: stronger effect = lower value", "procedure,_shortened": "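Multi-cell-type spheroids combined patient-derived tumor cells with HUVEC endothelial cells and human mesenchymal stem cells. Paired agents were dosed in half-log steps down from about clinical Cmax, or from 10 microM where Cmax was unknown.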", "key": {"[1]": {"conditions": "second compound 0.0316 µM, first compound 0.0316 µM"}, "[2]": {"conditions": "second compound 0.0316 µM, first compound 0.1 µM"}, "[3]": {"conditions": "second compound 0.0316 µM, first compound 0.316 µM"}, "[4]": {"conditions": "second compound 0.0316 µM, first compound 1 µM"}, "[5]": {"conditions": "second compound 0.0316 µM, first compound 3.16 µM"}, "[6]": {"conditions": "second compound 0.0316 µM, first compound 10 µM"}, "[7]": {"conditions": "second compound 0.1 µM, first compound 0.0316 µM"}, "[8]": {"conditions": "second compound 0.1 µM, first compound 0.1 µM"}, "[9]": {"conditions": "second compound 0.1 µM, first compound 0.316 µM"}, "[10]": {"conditions": "second compound 0.1 µM, first compound 1 µM"}, "[11]": {"conditions": "second compound 0.1 µM, first compound 3.16 µM"}, "[12]": {"conditions": "second compound 0.1 µM, first compound 10 µM"}, "[13]": {"conditions": "second compound 0.316 µM, first compound 0.0316 µM"}, "[14]": {"conditions": "second compound 0.316 µM, first compound 0.1 µM"}, "[15]": {"conditions": "second compound 0.316 µM, first compound 0.316 µM"}, "[16]": {"conditions": "second compound 0.316 µM, first compound 1 µM"}, "[17]": {"conditions": "second compound 0.316 µM, first compound 3.16 µM"}, "[18]": {"conditions": "second compound 0.316 µM, first compound 10 µM"}, "[19]": {"conditions": "second compound 1 µM, first compound 0.0316 µM"}, "[20]": {"conditions": "second compound 1 µM, first compound 0.1 µM"}, "[21]": {"conditions": "second compound 1 µM, first compound 0.316 µM"}, "[22]": {"conditions": "second compound 1 µM, first compound 1 µM"}, "[23]": {"conditions": "second compound 1 µM, first compound 3.16 µM"}, "[24]": {"conditions": "second compound 1 µM, first compound 10 µM"}, "[25]": {"conditions": "second compound 3.16 µM, first compound 0.0316 µM"}, "[26]": {"conditions": "second compound 3.16 µM, first compound 0.1 µM"}, "[27]": {"conditions": "second compound 3.16 µM, first compound 0.316 µM"}, "[28]": {"conditions": "second compound 3.16 µM, first compound 1 µM"}, "[29]": {"conditions": "second compound 3.16 µM, first compound 3.16 µM"}, "[30]": {"conditions": "second compound 3.16 µM, first compound 10 µM"}, "[31]": {"conditions": "second compound 10 µM, first compound 0.0316 µM"}, "[32]": {"conditions": "second compound 10 µM, first compound 0.1 µM"}, "[33]": {"conditions": "second compound 10 µM, first compound 0.316 µM"}, "[34]": {"conditions": "second compound 10 µM, first compound 1 µM"}, "[35]": {"conditions": "second compound 10 µM, first compound 3.16 µM"}, "[36]": {"conditions": "second compound 10 µM, first compound 10 µM"}}}
{"smiles": "COc1ccc([C@@H](O)c2cc(-c3ncnc4cc(N5CCOCC5)ccc34)c(F)cc2Cl)nn1", "note": "+ CNC(=O)c1ccc(Nc2nc(OC3CCCC3)c3c(-c4ccc5nc(C)oc5c4)c[nH]c3n2)c(OC)c1", "values": [{"measurement": "IC50", "setting": "second compound 0.0316 µM", "result": 9.72, "unit": "µM"}, {"measurement": "IC50", "setting": "second compound 0.1 µM", "result": "> 10", "unit": "µM"}, {"measurement": "IC50", "setting": "second compound 0.316 µM", "result": 1.5, "unit": "µM"}, {"measurement": "IC50", "setting": "second compound 1 µM", "result": "< 0.0316", "unit": "µM"}, {"measurement": "IC50", "setting": "second compound 3.16 µM", "result": "< 0.0316", "unit": "µM"}, {"measurement": "IC50", "setting": "second compound 10 µM", "result": "< 0.0316", "unit": "µM"}, {"measurement": "viability, T/C", "setting": "[1]", "result": 99.2, "unit": "%"}, {"measurement": "viability, T/C", "setting": "[2]", "result": 127, "unit": "%"}, {"measurement": "viability, T/C", "setting": "[3]", "result": 110, "unit": "%"}, {"measurement": "viability, T/C", "setting": "[4]", "result": 95.3, "unit": "%"}, {"measurement": "viability, T/C", "setting": "[5]", "result": 79.2, "unit": "%"}, {"measurement": "viability, T/C", "setting": "[6]", "result": 48.9, "unit": "%"}, {"measurement": "viability, T/C", "setting": "[7]", "result": 85.9, "unit": "%"}, {"measurement": "viability, T/C", "setting": "[8]", "result": 79.9, "unit": "%"}, {"measurement": "viability, T/C", "setting": "[9]", "result": 77.7, "unit": "%"}, {"measurement": "viability, T/C", "setting": "[10]", "result": 70.7, "unit": "%"}, {"measurement": "viability, T/C", "setting": "[11]", "result": 63.8, "unit": "%"}, {"measurement": "viability, T/C", "setting": "[12]", "result": 49.1, "unit": "%"}, {"measurement": "viability, T/C", "setting": "[13]", "result": 62, "unit": "%"}, {"measurement": "viability, T/C", "setting": "[14]", "result": 67, "unit": "%"}, {"measurement": "viability, T/C", "setting": "[15]", "result": 49.9, "unit": "%"}, {"measurement": "viability, T/C", "setting": "[16]", "result": 52.1, "unit": "%"}, {"measurement": "viability, T/C", "setting": "[17]", "result": 49.4, "unit": "%"}, {"measurement": "viability, T/C", "setting": "[18]", "result": 40.3, "unit": "%"}, {"measurement": "viability, T/C", "setting": "[19]", "result": 49.2, "unit": "%"}, {"measurement": "viability, T/C", "setting": "[20]", "result": 42.1, "unit": "%"}, {"measurement": "viability, T/C", "setting": "[21]", "result": 42.6, "unit": "%"}, {"measurement": "viability, T/C", "setting": "[22]", "result": 43, "unit": "%"}, {"measurement": "viability, T/C", "setting": "[23]", "result": 40.3, "unit": "%"}, {"measurement": "viability, T/C", "setting": "[24]", "result": 28.5, "unit": "%"}, {"measurement": "viability, T/C", "setting": "[25]", "result": 48.7, "unit": "%"}, {"measurement": "viability, T/C", "setting": "[26]", "result": 41.2, "unit": "%"}, {"measurement": "viability, T/C", "setting": "[27]", "result": 43.7, "unit": "%"}, {"measurement": "viability, T/C", "setting": "[28]", "result": 33.5, "unit": "%"}, {"measurement": "viability, T/C", "setting": "[29]", "result": 32.1, "unit": "%"}, {"measurement": "viability, T/C", "setting": "[30]", "result": 26.8, "unit": "%"}, {"measurement": "viability, T/C", "setting": "[31]", "result": 41.4, "unit": "%"}, {"measurement": "viability, T/C", "setting": "[32]", "result": 47.9, "unit": "%"}, {"measurement": "viability, T/C", "setting": "[33]", "result": 35.7, "unit": "%"}, {"measurement": "viability, T/C", "setting": "[34]", "result": 39.8, "unit": "%"}, {"measurement": "viability, T/C", "setting": "[35]", "result": 31.2, "unit": "%"}, {"measurement": "viability, T/C", "setting": "[36]", "result": 26.7, "unit": "%"}]}
{"smiles": "COc1cccc2c1C(=O)c1c(O)c3c(c(O)c1C2=O)CC(O)(C(=O)CO)CC3OC1CC(N)C(O)C(C)O1", "note": "(centres undefined) + CNC(=O)c1ccc(Nc2nc(OC3CCCC3)c3c(-c4ccc5nc(C)oc5c4)c[nH]c3n2)c(OC)c1", "values": [{"measurement": "IC50", "setting": "second compound 0.0316 µM", "result": 0.104, "unit": "µM"}, {"measurement": "IC50", "setting": "second compound 0.1 µM", "result": 0.135, "unit": "µM"}, {"measurement": "IC50", "setting": "second compound 0.316 µM", "result": "< 0.0316", "unit": "µM"}, {"measurement": "IC50", "setting": "second compound 1 µM", "result": "< 0.0316", "unit": "µM"}, {"measurement": "IC50", "setting": "second compound 3.16 µM", "result": "< 0.0316", "unit": "µM"}, {"measurement": "IC50", "setting": "second compound 10 µM", "result": "< 0.0316", "unit": "µM"}, {"measurement": "viability, T/C", "setting": "[1]", "result": 69.4, "unit": "%"}, {"measurement": "viability, T/C", "setting": "[2]", "result": 38.1, "unit": "%"}, {"measurement": "viability, T/C", "setting": "[3]", "result": 41.5, "unit": "%"}, {"measurement": "viability, T/C", "setting": "[4]", "result": 28.1, "unit": "%"}, {"measurement": "viability, T/C", "setting": "[5]", "result": 19.5, "unit": "%"}, {"measurement": "viability, T/C", "setting": "[6]", "result": 0.64, "unit": "%"}, {"measurement": "viability, T/C", "setting": "[7]", "result": 73.2, "unit": "%"}, {"measurement": "viability, T/C", "setting": "[8]", "result": 44.8, "unit": "%"}, {"measurement": "viability, T/C", "setting": "[9]", "result": 39.6, "unit": "%"}, {"measurement": "viability, T/C", "setting": "[10]", "result": 28, "unit": "%"}, {"measurement": "viability, T/C", "setting": "[11]", "result": 19.7, "unit": "%"}, {"measurement": "viability, T/C", "setting": "[12]", "result": 0.62, "unit": "%"}, {"measurement": "viability, T/C", "setting": "[13]", "result": 48, "unit": "%"}, {"measurement": "viability, T/C", "setting": "[14]", "result": 44.1, "unit": "%"}, {"measurement": "viability, T/C", "setting": "[15]", "result": 29.9, "unit": "%"}, {"measurement": "viability, T/C", "setting": "[16]", "result": 22.7, "unit": "%"}, {"measurement": "viability, T/C", "setting": "[17]", "result": 13.4, "unit": "%"}, {"measurement": "viability, T/C", "setting": "[18]", "result": 0.67, "unit": "%"}, {"measurement": "viability, T/C", "setting": "[19]", "result": 40.8, "unit": "%"}, {"measurement": "viability, T/C", "setting": "[20]", "result": 30, "unit": "%"}, {"measurement": "viability, T/C", "setting": "[21]", "result": 22.7, "unit": "%"}, {"measurement": "viability, T/C", "setting": "[22]", "result": 17.4, "unit": "%"}, {"measurement": "viability, T/C", "setting": "[23]", "result": 9.89, "unit": "%"}, {"measurement": "viability, T/C", "setting": "[24]", "result": 0.56, "unit": "%"}, {"measurement": "viability, T/C", "setting": "[25]", "result": 30.6, "unit": "%"}, {"measurement": "viability, T/C", "setting": "[26]", "result": 30.9, "unit": "%"}, {"measurement": "viability, T/C", "setting": "[27]", "result": 20.8, "unit": "%"}, {"measurement": "viability, T/C", "setting": "[28]", "result": 13.7, "unit": "%"}, {"measurement": "viability, T/C", "setting": "[29]", "result": 7.23, "unit": "%"}, {"measurement": "viability, T/C", "setting": "[30]", "result": 0.56, "unit": "%"}, {"measurement": "viability, T/C", "setting": "[31]", "result": 37.2, "unit": "%"}, {"measurement": "viability, T/C", "setting": "[32]", "result": 25.6, "unit": "%"}, {"measurement": "viability, T/C", "setting": "[33]", "result": 24.2, "unit": "%"}, {"measurement": "viability, T/C", "setting": "[34]", "result": 15.4, "unit": "%"}, {"measurement": "viability, T/C", "setting": "[35]", "result": 6.06, "unit": "%"}, {"measurement": "viability, T/C", "setting": "[36]", "result": 0.58, "unit": "%"}]}
